pIC50: −log10 of the molar value.
What was measured:
[1] = target: SNAP-hSPR (sepiapterin reductase, SPR) (Homo sapiens, UniProt P35270); assay: biochemical; format: binding; conditions: terbium labelled SNAP-hSPR / SSZ labelled SNAP-EGFP; read-out: hTR-FRET IC50
[2] = system: BH4 levels in SK-N-BE (2) cells; assay: SKN-N-BE (2) cellular assay, BH4 levels by LC-MS; format: cell-based; conditions: Homo sapiens, SKNBE2, read-out: SK-N-BE(2) IC50, SK-N-BE (2) cells, BH4 levels by LC-MS
Procedure: SKN-N-BE(2) Cellular Assay: SK-N-BE (2) cells were seeded in sterile, 96-well plates and incubated for 12-24 hours at 37° C. with 5% CO2 supply. Media was removed and fresh DMEM/F-12 media (containing Glutamine & Pen/Strep but no FBS) was added. Compounds (at different concentrations) were added to different wells. The plates were then incubated for 6-48 hours at 37° C. with 5% CO2 supply. Plates were then centrifuged and the supernatant was removed. The plates were then optionally washed once with PBS. They were then sealed and stored at −80° C. or immediately used. The cells were lysed and the level of BH4 was assessed by LC-MS.
Compounds were assayed for SPR inhibitory activity using a SKN-N-BE (2) cellular assay according to the following procedure. SK-N-BE (2) cells were seeded in sterile, 96-well plates and incubated for 12-24 hours at 37° C. with 5% CO2 supply. Media was removed and fresh DMEM/F-12 media (containing Glutamine & Pen/Strep but no FBS) was added. Compounds (at different concentrations) were added to different wells. The plates were then incubated for 6-48 hours at 37° C. with 5% CO2 supply. Plates were then centrifuged and the supernatant was removed. The plates were then optionally washed once with PBS. They were then sealed and stored at −80° C. or immediately used in the next step. The cells were lysed and the levels of BH4 were assessed by LC-MS.

Sequence of SNAP-hSPR (sepiapterin reductase, SPR) (P35270 whole entry): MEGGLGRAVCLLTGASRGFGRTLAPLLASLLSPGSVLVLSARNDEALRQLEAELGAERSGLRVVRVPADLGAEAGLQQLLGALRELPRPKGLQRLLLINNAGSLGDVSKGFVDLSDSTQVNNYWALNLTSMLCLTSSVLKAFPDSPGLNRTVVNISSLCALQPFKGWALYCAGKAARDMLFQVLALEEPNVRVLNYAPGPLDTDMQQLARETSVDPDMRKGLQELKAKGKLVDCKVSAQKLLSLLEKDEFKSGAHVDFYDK

Row | SMILES | pIC50 [1] | pIC50 [2]
1 | Cc1c(C(=O)N2CCC(O)(C(F)(F)F)CC2)cnn1-c1nn2cccc2c(=O)[nH]1 [Q-0803] | 9.00 | 6.70
2 | Cc1c(C(=O)N2CCC(O)(c3ccccc3)CC2C)cnn1-c1nc2c(c(=O)[nH]1)CCC2 (stereo not shown) [Q-0483] | 8.40 | 7.31
3 | Cc1cc(=O)[nH]c(-n2ncc(C(=O)N3CCc4ccccc4C3)c2Cc2ccccc2)n1 [Q-0358] | 7.00 | 4.66
4 | Cc1cc(=O)[nH]c(-n2ncc(C(=O)N3CCN(c4ccccn4)CC3)c2C)n1 [Q-0299] | 8.30 | 5.92
5 | Cc1cc(=O)[nH]c(-n2ncc(C(=O)N3CCc4ccccc4C3)c2C(F)(F)F)n1 [Q-0342] | 8.00 | 5.62
6 | O=C(c1cnn(-c2nc3c(c(=O)[nH]2)CCC3)c1)N1CCC(C(F)(F)F)CC1 [Q-0526, 2-{4-[4-(trifluoromethyl)piperidine-1-carbonyl]-1H-pyrazol-1-yl}-3H,4H,5H,6H,7H-cyclopenta[d]pyrimidin-4-one] | 8.52 | 7.55
7 | O=C(c1cnn(-c2nc3c(c(=O)[nH]2)CCC3)c1C1CC1)N1CCC(c2nc3ccccc3s2)CC1 [Q-0546] | 8.05 | 7.08
8 | Cc1c(C(=O)N2CCC(c3c[nH]c4ccccc34)CC2)cnn1-c1nn2cccc2c(=O)[nH]1 [Q-0585] | 8.22 | 7.48
9 | Cc1c(C(=O)N2CC3[C@@H](C2)CN3C(=O)OC(C)(C)C)cnn1-c1nn2cccc2c(=O)[nH]1 (stereo partly shown) [Q-0806] | 8.52 | 5.92
10 | Cc1c(C(=O)N2C3CCC2CN(C(=O)OC(C)(C)C)C3)cnn1-c1nc2c(c(=O)[nH]1)CCC2 [Q-0745] | 8.40 | 6.70
11 | Cc1c(C(=O)N(C)C2CCCCC2)cnn1-c1nc2c(c(=O)[nH]1)CCC2 [Q-0492] | 8.10 | 6.70
12 | Cc1c(C(=O)N2CCC(C)(C)C2)cnn1-c1nc2ccsc2c(=O)[nH]1 [Q-0380] | 8.15 | 5.57
13 | Cc1cc(=O)[nH]c(-n2ncc(C(=O)N3CCC(C)(C)C3)c2CC(C)C)n1 [Q-0371] | 7.15 | 4.85
14 | Cc1cc(=O)[nH]c(-n2ncc(C(=O)N3CCc4[nH]ncc4C3)c2C)n1 [Q-0345] | 8.00 | 4.11
15 | Cc1c(C(=O)N2CCC(C(F)(F)F)CC2)cnn1-c1nc2c(c(=O)[nH]1)CC2 [Q-0765] | 8.30 | 6.52
16 | Cc1c(C(=O)Nc2ccccc2N2CCOCC2)cnn1-c1nc2c(c(=O)[nH]1)CCC2 [Q-0532] | 7.70 | 7.36
17 | O=C(c1ccnc(-c2nc3ccsc3c(=O)[nH]2)c1)N1CCC(c2nc3ccccc3s2)CC1 [Q-0548] | 7.70 | 5.68
18 | O=C(c1cnn(-c2nn3cccc3c(=O)[nH]2)c1)N1CCC(OCC(F)(F)F)CC1 [Q-0783] | 8.70 | 6.52
19 | Cc1nn(-c2nc3ccsc3c(=O)[nH]2)c(C)c1C(=O)N1CCc2ccccc2C1 [Q-0458] | 8.22 | 6.40
20 | COC(=O)c1cnn(-c2nn3c(F)ccc3c(=O)[nH]2)c1C1CC1 [Q-0618] | 9.00 | 7.60
21 | Cc1c(C(=O)N2[C@H](C)CCC[C@@H]2C)cnn1-c1nc2ccsc2c(=O)[nH]1 [Q-0417] | 8.40 | 6.05
22 | Cc1cc(=O)[nH]c(-n2ncc(C(=O)N3CCC(C(F)(F)F)CC3)c2C)n1 [Q-0359] | 8.52 | 5.96
23 | Cc1c(C(=O)N2CCC(Oc3ccccc3)C2)cnn1-c1nc2c(c(=O)[nH]1)CCC2 (stereo not shown) [Q-0477] | 8.30 | 7.04
24 | COC(=O)c1cnn(-c2nn3c(F)ccc3c(=O)[nH]2)c1C [Q-0619] | 8.52 | 6.52

Row | SMILES | pIC50 [1] | pIC50 [2]
25 | Cc1c(C(=O)N2CC(CNC(=O)OC(C)(C)C)C2)cnn1-c1nc2ccsc2c(=O)[nH]1 [Q-0582] | 7.70 | 6.00
26 | O=C(c1cnn(-c2nc3c(c(=O)[nH]2)CCC3)c1)N1CCC2(CC1)CC2 [Q-0705] | 8.70 | 7.37
27 | Cc1nn(-c2nc3ccsc3c(=O)[nH]2)c(C)c1C(=O)N1CCC(C)(C)C1 [Q-0411] | 8.05 | 5.57
28 | O=C(c1cnn(-c2nn3cccc3c(=O)[nH]2)c1)N1CCC(CC(F)(F)F)CC1 [Q-0713] | 9.00 | 6.70
29 | O=C(c1cnn(-c2nn3cccc3c(=O)[nH]2)c1)N1CCC(c2nc3ccccc3s2)CC1 [Q-0537] | 7.40 | 6.70
30 | Cc1c(C(=O)N2CCC(CC(F)(F)F)CC2)cnn1-c1nn2cc(F)cc2c(=O)[nH]1 [Q-0747] | 8.10 | 6.10
31 | Cc1c(C(=O)N2CC(CN)C2)cnn1-c1nc2c(c(=O)[nH]1)CCC2 [Q-0589] | 7.22 | 5.77
32 | COC1CN(C(=O)c2cnn(-c3nc4c(c(=O)[nH]3)CCC4)c2C)C1 [Q-0470] | 8.30 | 6.00
33 | O=C(O)c1ccnc(-c2nc3c(c(=O)[nH]2)CCC3)c1 [Q-0558] | 5.30 | 5.00
34 | Cc1c(C(=O)N2CCN(C)CC2)cnn1-c1nn2cccc2c(=O)[nH]1 [Q-0756] | 8.40 | 6.10
35 | Cc1cc(=O)[nH]c(-n2ncc(C(=O)N3Cc4ccccc4C3)c2C)n1 [Q-0302] | 8.05 | 5.92
36 | N#CC1(c2ccccc2)CCN(C(=O)c2cnn(-c3nc4c(c(=O)[nH]3)CCC4)c2)CC1 [Q-0726] | 9.00 | 7.13
37 | Cc1cc(=O)[nH]c(-n2ccc(C(=O)N3c4ccccc4CC3C)n2)n1 (stereo not shown) [Q-0377] | 7.40 | 5.20
38 | Cc1c(C(=O)N2CCC(C(F)(F)F)CC2)cnn1-c1nc2c(c(=O)[nH]1)CCCC2 [Q-0425] | 7.52 | 5.68
39 | Cc1c(C(=O)N2CCC(C(F)(F)F)CC2)cnn1-c1nc2sccc2c(=O)[nH]1 [Q-0410] | 8.70 | 6.70
40 | Cc1c(C(=O)N2CCN(c3ccccc3)CC2)cnn1-c1nn2cccc2c(=O)[nH]1 [Q-0802] | 9.00 | 7.17
41 | Cc1c(C(=O)N2CCN(c3cccc(C(F)(F)F)c3)CC2)cnn1-c1nn2cccc2c(=O)[nH]1 [Q-0840] | 8.52 | 6.70
42 | O=C(c1cnn(-c2nn3cccc3c(=O)[nH]2)c1)N1CCC(C(O)(C(F)(F)F)C(F)(F)F)CC1 [Q-0719] | 8.70 | 6.70
43 | Cc1c(C(=O)N2C[C@@H]3CCN(C(=O)OC(C)(C)C)C[C@@H]32)cnn1-c1nn2cccc2c(=O)[nH]1 [Q-0790] | 8.15 | 5.85
44 | Cc1c(C(=O)N2CCC(C(C#N)C3CC3)CC2)cnn1-c1nn2cccc2c(=O)[nH]1 (stereo not shown) [Q-0855] | 9.00 | 7.00
45 | O=C(c1ccc(-c2nc3c(c(=O)[nH]2)CCC3)nc1)N1CCC(C(F)(F)F)CC1 [Q-0472, 2-{5-[4-(trifluoromethyl)piperidine-1-carbonyl]pyridin-2-yl}-3H,4H,5H,6H,7H-cyclopenta[d]pyrimidin-4-one] | 6.70 | 4.77
46 | O=C(c1cccc(-c2nc3c(c(=O)[nH]2)CCC3)c1)N1CCC(C(F)(F)F)CC1 [Q-0593, 2-(3-(4-(trifluoromethyl)piperidine-1-carbonyl)phenyl)-6,7-dihydro-3H-cyclopenta[d]pyrimidin-4(5H)-one] | 6.70 | 5.13
47 | Cc1c(C(=O)N2CCC3(CC2)CC(F)(F)C3)cnn1-c1nc2c(c(=O)[nH]1)CCC2 [Q-0691] | 8.70 | 7.04
